The target in this assay is T1, MINK1 (Homo sapiens, UniProt Q8N4C8).
T1 construct: purchased Thermo Fisher Scientific (Life Technologies) SelectScreen
As to the kind of experiment: SelectScreen Z'LYTE. The format is biochemical. The method, boiled down: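 SelectScreen broad panel; activity (Z'LYTE, Adapta) plus binding formats. ATP: Km app for CSF1R Z'LYTE; 10 for CAMK1 Adapta. Readout = % per kinase.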

T1 sequence (Q8N4C8 whole entry): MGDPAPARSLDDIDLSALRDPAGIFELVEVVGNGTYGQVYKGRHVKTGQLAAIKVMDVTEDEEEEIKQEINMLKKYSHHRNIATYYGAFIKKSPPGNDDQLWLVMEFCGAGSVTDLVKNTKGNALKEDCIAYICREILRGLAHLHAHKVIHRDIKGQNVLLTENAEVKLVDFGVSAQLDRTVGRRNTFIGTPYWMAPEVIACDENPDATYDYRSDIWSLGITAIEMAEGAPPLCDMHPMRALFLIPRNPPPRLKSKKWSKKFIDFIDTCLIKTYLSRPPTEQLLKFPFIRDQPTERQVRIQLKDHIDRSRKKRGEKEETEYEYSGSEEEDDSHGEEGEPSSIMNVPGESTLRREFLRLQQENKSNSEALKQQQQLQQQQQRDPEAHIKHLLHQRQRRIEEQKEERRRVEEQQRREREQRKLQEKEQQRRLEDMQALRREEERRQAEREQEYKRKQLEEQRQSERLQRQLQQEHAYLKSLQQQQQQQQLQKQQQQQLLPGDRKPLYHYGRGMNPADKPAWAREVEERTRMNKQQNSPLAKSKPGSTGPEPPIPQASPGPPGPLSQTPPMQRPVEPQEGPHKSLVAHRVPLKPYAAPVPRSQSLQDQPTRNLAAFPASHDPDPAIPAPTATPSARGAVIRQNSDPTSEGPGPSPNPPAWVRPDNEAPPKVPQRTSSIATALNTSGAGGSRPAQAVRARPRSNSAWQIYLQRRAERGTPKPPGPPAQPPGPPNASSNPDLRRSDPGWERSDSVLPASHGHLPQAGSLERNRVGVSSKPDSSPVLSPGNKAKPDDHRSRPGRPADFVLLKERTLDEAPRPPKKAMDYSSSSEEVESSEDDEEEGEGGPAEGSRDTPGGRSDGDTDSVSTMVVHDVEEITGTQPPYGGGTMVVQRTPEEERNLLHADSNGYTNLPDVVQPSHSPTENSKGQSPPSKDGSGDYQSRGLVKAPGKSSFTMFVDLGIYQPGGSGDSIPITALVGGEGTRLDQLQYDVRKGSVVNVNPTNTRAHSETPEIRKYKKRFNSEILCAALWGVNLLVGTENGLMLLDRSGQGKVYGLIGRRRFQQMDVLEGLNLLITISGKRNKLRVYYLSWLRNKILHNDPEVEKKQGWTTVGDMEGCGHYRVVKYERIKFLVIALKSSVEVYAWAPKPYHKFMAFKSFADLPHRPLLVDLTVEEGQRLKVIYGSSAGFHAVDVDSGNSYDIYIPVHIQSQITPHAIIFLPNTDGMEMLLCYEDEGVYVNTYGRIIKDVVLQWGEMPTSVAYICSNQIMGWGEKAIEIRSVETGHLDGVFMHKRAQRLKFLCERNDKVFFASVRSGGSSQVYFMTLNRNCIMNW

The molecule `CN(C(=O)CN1CCOCC1)c1ccc2sc3c(-c4cccc5c(=O)cc(N6CC7CCC(C6)O7)oc45)cccc3c2c1` [NU5455] showed an inhibition at 1 µM of 4.6%.

Source of the values: paper PMC6934184, “Selective DNA-PKcs inhibition extends the therapeutic index of localized radiotherapy and chemotherapy” (The Journal of Clinical Investigation, 2019).
